Read-outs that look alike come from different tables or passages of the source. One block for each molecule: values may come before it. No end group written: not given here.
Target: T1, human TAS1R2-WT/TAS1R3-R247H (Homo sapiens, UniProt Q7RTX0+Q8TE23, R247H)
T1 construct: expressed in transfected cells; host or cells: HEK293T stably expressing Gα16gust44
T1 sequence (Q8TE23 20-839): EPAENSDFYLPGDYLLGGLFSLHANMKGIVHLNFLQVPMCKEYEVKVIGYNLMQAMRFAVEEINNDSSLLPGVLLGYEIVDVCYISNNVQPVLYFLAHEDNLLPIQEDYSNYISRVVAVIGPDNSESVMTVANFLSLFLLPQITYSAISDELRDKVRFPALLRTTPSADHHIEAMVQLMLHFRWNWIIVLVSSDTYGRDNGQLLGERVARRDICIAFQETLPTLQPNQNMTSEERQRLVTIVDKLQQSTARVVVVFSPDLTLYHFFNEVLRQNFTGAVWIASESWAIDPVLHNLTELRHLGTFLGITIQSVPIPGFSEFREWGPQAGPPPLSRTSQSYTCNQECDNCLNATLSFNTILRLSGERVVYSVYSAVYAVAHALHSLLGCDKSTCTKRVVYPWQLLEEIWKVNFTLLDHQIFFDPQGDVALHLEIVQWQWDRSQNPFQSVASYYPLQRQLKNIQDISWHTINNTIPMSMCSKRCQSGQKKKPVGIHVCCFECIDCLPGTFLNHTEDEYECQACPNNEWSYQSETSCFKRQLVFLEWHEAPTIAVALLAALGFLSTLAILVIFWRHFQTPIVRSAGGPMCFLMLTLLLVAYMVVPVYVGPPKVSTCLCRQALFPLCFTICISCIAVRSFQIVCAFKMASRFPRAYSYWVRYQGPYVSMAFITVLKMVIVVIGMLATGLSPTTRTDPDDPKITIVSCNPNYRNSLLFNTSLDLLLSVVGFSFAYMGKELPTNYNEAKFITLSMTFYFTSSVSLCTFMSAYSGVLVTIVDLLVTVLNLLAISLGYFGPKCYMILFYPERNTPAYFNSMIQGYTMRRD
T1 sequence (Q7RTX0 21-852 R247H): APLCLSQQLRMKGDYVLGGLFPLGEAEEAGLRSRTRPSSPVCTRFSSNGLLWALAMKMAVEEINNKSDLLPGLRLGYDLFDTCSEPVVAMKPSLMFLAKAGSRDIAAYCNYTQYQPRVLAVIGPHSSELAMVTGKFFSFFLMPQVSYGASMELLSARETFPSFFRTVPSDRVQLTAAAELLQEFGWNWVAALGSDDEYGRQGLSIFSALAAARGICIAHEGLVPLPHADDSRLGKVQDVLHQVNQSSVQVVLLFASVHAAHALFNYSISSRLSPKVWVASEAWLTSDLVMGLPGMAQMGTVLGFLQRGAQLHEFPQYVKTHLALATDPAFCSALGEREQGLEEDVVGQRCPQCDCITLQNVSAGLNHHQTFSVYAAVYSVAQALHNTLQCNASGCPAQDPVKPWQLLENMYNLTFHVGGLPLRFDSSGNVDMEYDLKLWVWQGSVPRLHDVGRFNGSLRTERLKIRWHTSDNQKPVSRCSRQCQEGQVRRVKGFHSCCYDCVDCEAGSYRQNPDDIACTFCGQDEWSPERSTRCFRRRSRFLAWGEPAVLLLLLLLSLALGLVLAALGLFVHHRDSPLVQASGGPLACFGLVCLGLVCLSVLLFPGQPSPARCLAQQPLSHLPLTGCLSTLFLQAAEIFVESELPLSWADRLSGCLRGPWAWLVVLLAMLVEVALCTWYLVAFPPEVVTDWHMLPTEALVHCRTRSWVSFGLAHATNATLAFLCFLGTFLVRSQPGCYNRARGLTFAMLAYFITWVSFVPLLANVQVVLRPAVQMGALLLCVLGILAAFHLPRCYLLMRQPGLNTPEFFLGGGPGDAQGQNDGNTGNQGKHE
Test: Calcium mobilisation assay, TAS1R2-WT with TAS1R3 variant R247H
Type: cell-based
Conditions: for Max ΔF/F0: maximal signal amplitude
From the text: The coding sequences for TAS1R2 and TAS1R3 were commercially synthesised, and the human codon was optimised for expression in human cells. The coding sequences of human TAS1R2 and TAS1R3 were subcloned and inserted into the mammalian expression vectors pcDNA6/myc-HisA and pcDNA4/myc-HisA (Invitrogen; Thermo Fisher Scientific; Illkirch, France) between the EcoRI and NotI restriction sites, generating the plasmids pcDNA6-TAS1R2 and pcDNA4-TAS1R3, respectively. To increase protein expression in mammalian cells, an upstream start codon was used, which was a sequence called MAX, corresponding to the QBI SP163 element also described in pcDNA4-HisMax (Invitrogen; Thermo Fisher Scientific; Illkirch, France). To measure the expression level of the receptor by immunohistochemistry, we used the FLAG sequence ([…]) in the C-terminal position, which encodes the FLAG tag epitope. SNP variants of TAS1R2 and TAS1R3 were constructed based on […], respectively, using site-directed mutagenesis (Genewiz; Leipzig, Germany).
The HEK293T cells were kindly provided by Jay P. Slack (Givaudan Flavors Corporation; Cincinnati, OH, USA). HEK293T cells stably transfected with Gα16gust44 [43, 67] were seeded in poly-D-lysine-coated clear-bottom black 96-well plates (0.35 × 10^5 cells/well) in high-glucose DMEM supplemented with 2 mM GlutaMAX, 10% dialysed foetal bovine serum with penicillin/streptomycin and G418 (400 μg/mL) at 37 °C and 6.3% CO2 in a humidified atmosphere as previously reported. […] As a negative control, HEK293T cells were mock-transfected with the empty expression vector. After a further 24 h of incubation, the HEK293T cells were washed with C1 buffer (130 mM NaCl, 5 mM KCl, 10 mM HEPES pH 7.4 and 2 mM CaCl2). The 96-well plates containing the cells were then stimulated with sweet-tasting compounds. […] Different concentration ranges were tested depending on the sweet compound injected. The Ca^2+ changes were expressed as fractional changes in fluorescent light intensity: ΔF/F = (F − F0)/F0, where F was the fluorescent light intensity at each point, and F0 was the value of emitted fluorescent light prior to stimulus application. To calculate dose–response relationships, the changes in fluorescence upon stimulus application were averaged, mock-subtracted and baseline-corrected. The dose–response data obtained were adjusted using a 4-parameter logistic equation. The half-maximal effective concentrations (EC50 values) and maximal signal amplitudes were calculated using SigmaPlot software (version 15.0) (Systat Software; San Jose, CA, USA).
For in vitro calcium mobilisation assay performed on hTAS1R2-SNPs, hTAS1R3-SNPs and mTAS1R3-I60T, 6 to 7 concentrations were tested for each sweet compound, plus buffer alone. All concentration–receptor combinations were measured in duplicate, and each experiment was repeated at least 4 times (8 wells/concentration). Results were expressed for each concentration as ΔF/F mean ± SEM and represented as dose–response curves.

R1 = Variant EC50/WT EC50: 1.0
Max ΔF/F0: 0.33 ± 0.01
EC50 (read-out: EC50): 639 ± 17 µM
Molecule: CC1=CC(=O)NS(=O)(=O)O1 [Acesulfame K, acesulfame K]

Molecule: O=S(=O)(O)NC1CCCCC1 [Cyclamate, cyclamate]
EC50 (read-out: EC50): 1520 ± 46 µM

Molecule: C[C@H](CC[C@@H](O[C@@H]1O[C@H](CO[C@@H]2O[C@H](CO)[C@@H](O)[C@H](O)[C@H]2O)[C@@H](O)[C@H](O)[C@H]1O[C@@H]1O[C@H](CO)[C@@H](O)[C@H](O)[C@H]1O)C(C)(C)O)[C@H]1CC[C@@]2(C)[C@@H]3CC=C4[C@@H](CC[C@H](O[C@@H]5O[C@H](CO[C@@H]6O[C@H](CO)[C@@H](O)[C@H](O)[C@H]6O)[C@@H](O)[C@H](O)[C@H]5O)C4(C)C)[C@]3(C)[C@H](O)C[C@]12C [Mogroside V, mogroside V]
R1 = Variant EC50/WT EC50: 0.9
Max ΔF/F0: 1.12 ± 0.02
EC50 (read-out: EC50): 28.7 ± 1.6 µM

R1 = Variant EC50/WT EC50: 1.3
Max ΔF/F0: 1.14 ± 0.05
EC50 (read-out: EC50): 65 ± 8.9 µM
Molecule: COc1ccc(CCC(=O)c2c(O)cc(O[C@@H]3O[C@H](CO)[C@@H](O)[C@H](O)[C@H]3O[C@@H]3O[C@@H](C)[C@H](O)[C@@H](O)[C@H]3O)cc2O)cc1O [NHDC, neohesperidin dihydrochalcone]

R1 = Variant EC50/WT EC50: 0.9
Max ΔF/F0: 0.71 ± 0.02
EC50 (read-out: EC50): 1.12 ± 0.07 µM
Molecule: COC(=O)[C@H](Cc1ccccc1)NC(=O)[C@H](CC(=O)O)NCCC(C)(C)C [Neotame]

R1 = Variant EC50/WT EC50: 0.6
Max ΔF/F0: 1.26 ± 0.15
EC50 (read-out: EC50): 8.5 ± 3.1 µM
Molecule: C=C(C)[C@@H]1CC=C(/C=N/O)CC1 [Perillartine, perillartine]

R1 = Variant EC50/WT EC50: 0.7
Max ΔF/F0: 1.15 ± 0.04
EC50 (read-out: EC50): 29.7 ± 2.6 µM
Molecule: C=C1C[C@@]23CC[C@H]4[C@@](C)(CCC[C@@]4(C)C(=O)O[C@@H]4O[C@H](CO)[C@@H](O)[C@H](O[C@@H]5O[C@H](CO)[C@@H](O)[C@H](O)[C@H]5O)[C@H]4O[C@@H]4O[C@H](CO)[C@@H](O)[C@H](O)[C@H]4O)[C@@H]2CC[C@]1(O[C@@H]1O[C@H](CO)[C@@H](O)[C@H](O[C@@H]2O[C@H](CO)[C@@H](O)[C@H](O)[C@H]2O)[C@H]1O[C@@H]1O[C@H](CO)[C@@H](O)[C@H](O)[C@H]1O)C3 [Rebaudioside M, rebaudioside M]

R1 = Variant EC50/WT EC50: 1.1
Max ΔF/F0: 0.69 ± 0.01
EC50 (read-out: EC50): 122 ± 2 µM
Molecule: OC[C@H]1O[C@H](O[C@]2(CCl)O[C@H](CCl)[C@@H](O)[C@@H]2O)[C@H](O)[C@@H](O)[C@H]1Cl [Sucralose]

R1 = Variant EC50/WT EC50: 0.6
EC50 (brazzein): 70.8 ± 8.1 µg/mL
Max ΔF/F0: 0.95 ± 0.03
Molecule: brazzein (QDKCKKVYENYPVSKCQLANQCNYDCKLDKHARSGECFYDEKRNLQCICDYCEY; ends and bridges not checked; cysteine pairing not given here; UniProt P56552 1-54, looked up) [sweet-tasting protein obtained by recombinant production using the yeast Pichia pastoris]

R1 = Variant EC50/WT EC50: 0.8
Max ΔF/F0: 0.73 ± 0.08
Molecule: thaumatin

EC50 (read-out: EC50): 8.2 ± 2.3 µM
B1: thaumatin (protein)
chain: ATFEIVNRCSYTVWAAASKGDAALDAGGRQLNSGESWTINVEPGTKGGKIWARTDCYFDDSGSGICKTGDCGGLLRCKRFGRPPTTLAEFSLNQYGKDYIDISNIKGFNVPMDFSPTTRGCRGVRCAADIVGQCPAKLKAPGGGCNDACTVFQTSEYCCTTGKCGPTEYSRFFKRLCPDAFSYVLDKPTTVTCPGSSNYRVTFCPTA
modifications: Eight disulfides
notes: sweet-tasting plant protein, E957
